The target of one data set is hERG potassium channel (Homo sapiens, UniProt Q12809). Description: hERG screening assay (PatchXpress patch clamp, CHO cell line).
Data set [1] addresses T1, wild-type human cardiac sodium channel, hNav1.5 (Homo sapiens, UniProt Q14524). Description: Late INa screening assay (late sodium current, PatchXpress whole cell patch clamp). Format: cell-based. Conditions: read-out: Late INa % blk. On the technique in general: The patch-clamp technique gives a direct electrical read-out from membranes.
The target in data set [2] is T1, wild-type human cardiac sodium channel, hNav1.5. The experiment in a line: Peak INa screening assay (tonic block TB and use-dependent block UDB of peak sodium current). Conditions: compound at 10 μM. The class given is cell-based.
Setting [3] is: tonic block, read-out: Tonic Peak INa % blk.
[4] abbreviates: use-dependent block, read-out: UDB Peak INa % blk.

The record followed here is US20090012103A1, “SUBSTITUTED HETEROCYCLIC COMPOUNDS” (priority 2007, published 2009).

T1 sequence (Q14524 whole entry): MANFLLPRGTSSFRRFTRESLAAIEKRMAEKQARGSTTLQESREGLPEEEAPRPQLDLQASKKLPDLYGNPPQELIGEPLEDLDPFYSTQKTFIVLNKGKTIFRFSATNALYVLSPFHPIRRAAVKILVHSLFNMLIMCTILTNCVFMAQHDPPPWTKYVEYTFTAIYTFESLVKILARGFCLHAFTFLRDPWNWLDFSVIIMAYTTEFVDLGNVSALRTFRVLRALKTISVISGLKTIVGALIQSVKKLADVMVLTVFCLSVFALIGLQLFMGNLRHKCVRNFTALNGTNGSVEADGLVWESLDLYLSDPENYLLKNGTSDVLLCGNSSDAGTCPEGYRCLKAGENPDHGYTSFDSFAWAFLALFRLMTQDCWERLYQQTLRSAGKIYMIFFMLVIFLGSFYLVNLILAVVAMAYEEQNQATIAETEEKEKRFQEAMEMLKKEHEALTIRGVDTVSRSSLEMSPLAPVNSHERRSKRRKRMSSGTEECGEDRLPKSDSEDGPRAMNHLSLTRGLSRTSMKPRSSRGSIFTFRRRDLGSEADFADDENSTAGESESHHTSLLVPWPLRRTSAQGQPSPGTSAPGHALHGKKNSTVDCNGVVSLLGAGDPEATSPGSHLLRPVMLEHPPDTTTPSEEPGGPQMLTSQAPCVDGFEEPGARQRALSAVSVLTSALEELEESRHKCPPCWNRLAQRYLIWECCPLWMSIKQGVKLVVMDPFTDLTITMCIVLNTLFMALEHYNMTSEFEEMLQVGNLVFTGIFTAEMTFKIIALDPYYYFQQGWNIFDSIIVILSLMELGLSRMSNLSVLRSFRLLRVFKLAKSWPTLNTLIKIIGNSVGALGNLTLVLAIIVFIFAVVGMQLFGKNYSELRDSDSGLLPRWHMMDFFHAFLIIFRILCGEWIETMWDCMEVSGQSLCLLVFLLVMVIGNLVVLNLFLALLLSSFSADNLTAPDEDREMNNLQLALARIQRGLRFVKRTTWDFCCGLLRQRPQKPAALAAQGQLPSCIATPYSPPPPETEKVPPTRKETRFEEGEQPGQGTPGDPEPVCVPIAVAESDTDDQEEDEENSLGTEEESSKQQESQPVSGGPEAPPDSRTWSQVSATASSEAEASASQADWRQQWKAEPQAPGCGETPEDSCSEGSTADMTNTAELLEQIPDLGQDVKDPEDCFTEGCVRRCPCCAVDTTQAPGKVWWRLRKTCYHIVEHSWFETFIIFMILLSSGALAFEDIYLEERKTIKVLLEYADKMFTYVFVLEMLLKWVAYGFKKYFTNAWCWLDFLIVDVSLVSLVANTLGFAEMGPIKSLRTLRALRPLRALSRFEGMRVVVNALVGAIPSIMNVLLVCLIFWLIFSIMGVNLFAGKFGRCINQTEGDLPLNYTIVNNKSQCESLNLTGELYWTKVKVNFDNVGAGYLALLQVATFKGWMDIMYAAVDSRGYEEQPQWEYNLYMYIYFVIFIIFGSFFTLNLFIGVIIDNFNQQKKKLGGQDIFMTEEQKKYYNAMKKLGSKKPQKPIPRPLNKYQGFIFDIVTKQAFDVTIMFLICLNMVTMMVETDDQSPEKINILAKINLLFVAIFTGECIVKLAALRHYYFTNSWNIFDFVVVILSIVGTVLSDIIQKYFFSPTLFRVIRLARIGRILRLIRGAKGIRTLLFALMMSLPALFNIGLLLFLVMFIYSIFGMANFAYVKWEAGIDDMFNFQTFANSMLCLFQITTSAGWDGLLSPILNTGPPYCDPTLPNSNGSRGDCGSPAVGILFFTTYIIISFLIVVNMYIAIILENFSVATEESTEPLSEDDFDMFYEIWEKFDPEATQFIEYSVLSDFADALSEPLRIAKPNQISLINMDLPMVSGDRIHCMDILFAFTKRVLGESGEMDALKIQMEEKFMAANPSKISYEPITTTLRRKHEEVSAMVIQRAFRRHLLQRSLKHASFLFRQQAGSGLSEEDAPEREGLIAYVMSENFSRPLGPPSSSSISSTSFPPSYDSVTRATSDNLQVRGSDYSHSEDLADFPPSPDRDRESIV
Chain of hERG potassium channel (Q12809 whole entry): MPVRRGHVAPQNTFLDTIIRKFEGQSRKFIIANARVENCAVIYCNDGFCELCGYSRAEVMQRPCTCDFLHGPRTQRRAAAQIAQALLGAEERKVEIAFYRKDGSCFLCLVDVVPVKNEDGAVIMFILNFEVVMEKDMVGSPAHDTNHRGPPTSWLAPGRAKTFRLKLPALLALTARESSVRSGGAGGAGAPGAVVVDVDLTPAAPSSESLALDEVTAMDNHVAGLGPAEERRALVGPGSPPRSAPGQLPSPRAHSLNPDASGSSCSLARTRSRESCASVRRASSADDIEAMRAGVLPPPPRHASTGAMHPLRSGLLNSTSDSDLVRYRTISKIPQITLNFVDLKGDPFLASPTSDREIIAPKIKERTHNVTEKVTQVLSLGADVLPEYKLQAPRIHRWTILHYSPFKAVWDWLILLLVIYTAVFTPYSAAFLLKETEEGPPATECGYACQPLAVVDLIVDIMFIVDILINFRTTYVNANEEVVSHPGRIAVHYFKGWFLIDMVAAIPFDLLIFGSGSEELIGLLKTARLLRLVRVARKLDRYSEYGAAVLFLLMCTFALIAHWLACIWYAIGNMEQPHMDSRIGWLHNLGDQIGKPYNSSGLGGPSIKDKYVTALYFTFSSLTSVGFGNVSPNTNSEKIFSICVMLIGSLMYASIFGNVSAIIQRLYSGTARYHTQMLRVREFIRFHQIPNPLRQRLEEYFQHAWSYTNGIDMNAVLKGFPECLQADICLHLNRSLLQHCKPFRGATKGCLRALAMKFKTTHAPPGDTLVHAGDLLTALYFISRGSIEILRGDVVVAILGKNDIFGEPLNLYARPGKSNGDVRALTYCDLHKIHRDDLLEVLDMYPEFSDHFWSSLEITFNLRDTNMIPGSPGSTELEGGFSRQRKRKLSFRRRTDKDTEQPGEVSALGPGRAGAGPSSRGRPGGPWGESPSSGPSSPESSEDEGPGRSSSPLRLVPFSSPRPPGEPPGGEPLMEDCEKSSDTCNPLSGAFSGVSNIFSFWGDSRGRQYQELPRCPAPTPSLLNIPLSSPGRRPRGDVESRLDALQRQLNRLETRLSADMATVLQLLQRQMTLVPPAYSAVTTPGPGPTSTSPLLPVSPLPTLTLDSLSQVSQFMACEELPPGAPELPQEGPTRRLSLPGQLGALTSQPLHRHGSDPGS

With `N#CC1=C(N)OC2=C(C(=O)CCC2)C1c1ccc(Br)cc1` (stereo not shown) [PT-096, 2-amino-4-(4-bromophenyl)-5-oxo-5,6,7,8-tetrahydro-4H-chromene-3-carbonitrile], the “hERG Patch Clamp hERG % blk” value on hERG potassium channel (1 μM) is reported as 15.0%; at hERG potassium channel (10 μM) it was 48.0%. Besides, the inhibition at 10 µM in data set [1] (compound at 10 μM) was 5.5%; in data set [2] (setting [3]), -0.4%.
Turning to `N#CC1=C(N)OC2=C(C(=O)CCC2)C1c1ccsc1` (stereo not shown) [PT-100, 2-amino-5-oxo-4-(thiophen-3-yl)-5,6,7,8-tetrahydro-4H-chromene-3-carbonitrile], the results for the “hERG Patch Clamp hERG % blk” value on hERG potassium channel (1 μM) and on hERG potassium channel (10 μM) were 10.0% and 16.5%, respectively. The inhibition at 10 µM in data set [1] (compound at 10 μM) was -12.1%; in data set [2] (setting [3]), 4%.
Consider `N#CC1=C(N)OC2=C(C(=O)CC(c3ccccc3)C2)C1c1cccs1` (stereo not shown) [PT-101, 2-amino-5-oxo-7-phenyl-4-(thiophen-2-yl)-5,6,7,8-tetrahydro-4H-chromene-3-carbonitrile], for which the “hERG Patch Clamp hERG % blk” value at hERG potassium channel (1 μM) came out at 19.0%; at hERG potassium channel (10 μM), 67.5%. Further, the inhibition at 10 µM was 49.3% in data set [1] (compound at 10 μM) and 2.9% in data set [2] (setting [3]).
As to `CCOC(=O)C1=C(C)NC(C)=C(C(=O)OCC)C1c1ccc2ccccc2c1` [PT-107, diethyl 2,6-dimethyl-4-(naphthalen-2-yl)-1,4-dihydropyridine-3,5-dicarboxylate], the “hERG Patch Clamp hERG % blk” value on hERG potassium channel (1 μM) turned out to be 11.5%; at hERG potassium channel (10 μM) it was 48.0%. The inhibition at 10 µM in data set [1] (compound at 10 μM) turned out to be 91.9%; in data set [2] (setting [3]), 25.9%.
The matching figures for `CCOC(=O)C1=C(C)NC(C)=C(C(=O)OCC)C1c1ccc(CC)s1` [PT-113, diethyl 4-(5-ethylthiophen-2-yl)-2,6-dimethyl-1,4-dihydropyridine-3,5-dicarboxylate]: 11.0%, 57.3%, 88.6% and 30.4%.
The matching figures for `CCOC(=O)C1=C(C)NC(C)=C(C(=O)OCC)C1c1cc2ccccc2s1` [PT-114, diethyl 4-(benzo[b]thiophen-2-yl)-2,6-dimethyl-1,4-dihydropyridine-3,5-dicarboxylate]: 20.9%, 51.5%, 85% and 13.1%.
Regarding `CCOC(=O)C1=C(C)NC(C)=C(C(=O)OCC)C1c1csc2ccccc12` [PT-115, diethyl 4-(benzo[b]thiophen-3-yl)-2,6-dimethyl-1,4-dihydropyridine-3,5-dicarboxylate], the “hERG Patch Clamp hERG % blk” value at hERG potassium channel (10 μM) was 50.3%. In addition, the inhibition at 10 µM in data set [1] (compound at 10 μM) amounted to 86%; in data set [2] (setting [3]) it was 17.2%.
For `CC1=C(C(=O)OC(C)C)C(c2cccc3ccccc23)C(C(=O)OC(C)C)=C(C)N1` [PT-123, diisopropyl 2,6-dimethyl-4-(naphthalen-1-yl)-1,4-dihydropyridine-3,5-dicarboxylate], the “hERG Patch Clamp hERG % blk” value on hERG potassium channel (1 μM) amounted to 10.0%; at hERG potassium channel (10 μM), 30.5%. In addition, the inhibition at 10 µM amounted to 86.9% in data set [1] (compound at 10 μM) and 7% in data set [2] (setting [3]).
The matching figures for `CC1=C(C(=O)OC(C)C)C(c2ccc(Br)s2)C(C(=O)OC(C)C)=C(C)N1` [PT-124, diisopropyl 4-(5-bromothiophen-2-yl)-2,6-dimethyl-1,4-dihydropyridine-3,5-dicarboxylate]: 11.5%, 66.0%, 86.2% and 58.7%.
With `CCOC(=O)C1=C(C)NC2=C(C(=O)CCC2)C1c1ccco1` (stereo not shown) [PT-153, ethyl 4-(furan-2-yl)-2-methyl-5-oxo-1,4,5,6,7,8-hexahydroquinoline-3-carboxylate], the “hERG Patch Clamp hERG % blk” value at hERG potassium channel (1 μM) was determined as 10.5%; on hERG potassium channel (10 μM), 13.5%. Moreover, the figures for the inhibition at 10 µM in data set [1] (compound at 10 μM) and in data set [2] (setting [3]) were -5% and 1.7%, respectively.
The matching figures for `CC1=C(C(=O)OC(C)C)C(c2ccc3ccccc3c2)C2=C(CCCC2=O)N1` (stereo not shown) [PT-157, isopropyl 2-methyl-4-(naphthalen-2-yl)-5-oxo-1,4,5,6,7,8-hexahydroquinoline-3-carboxylate]: 16.0%, 37.1%, 62.3% and 15.3%.
The matching figures for `CC1=C(C(=O)N2CCC(c3ccc(C(=O)O)cc3)CC2)C(c2cccc3ccccc23)C2=C(CCCC2=O)N1` (stereo not shown) [PT-173, 4-(1-(2-methyl-4-(naphthalen-1-yl)-5-oxo-1,4,5,6,7,8-hexahydroquinoline-3-carbonyl)piperidin-4-yl)benzoic acid]: 12.0%, 37.0%, 52.6% and 0%.
The matching figures for `CCOC(=O)C1=C(CC)NC(CC)=C(C(=O)OCC)C1c1ccc(Br)s1` [PT-181, diethyl 4-(5-bromothiophen-2-yl)-2,6-diethyl-1,4-dihydropyridine-3,5-dicarboxylate]: 10.5%, 73.0%, 91.7% and 76.5%.
As to `CCOC(=O)C1=C(C)N(C)C(C)=C(C(=O)OCC)C1c1cccc2ccccc12` [PT-191, diethyl 1,2,6-trimethyl-4-(naphthalen-1-yl)-1,4-dihydropyridine-3,5-dicarboxylate], the “hERG Patch Clamp hERG % blk” value came to 26.5% on hERG potassium channel (1 μM) and 68.0% on hERG potassium channel (10 μM). In addition, the inhibition at 10 µM in data set [1] (compound at 10 μM) amounted to 63.2%; in data set [2] (setting [3]) it was 0%.
In the case of `CCOC(=O)C1=C(C)Nc2nnnn2C1c1cccc2ccccc12` (stereo not shown) [PT-192, ethyl 5-methyl-7-(naphthalen-1-yl)-4,7-dihydrotetrazolo[1,5-a]pyrimidine-6-carboxylate], the “hERG Patch Clamp hERG % blk” value on hERG potassium channel (1 μM) is recorded as 23.0%; on hERG potassium channel (10 μM) it was 29.0%. Moreover, the inhibition at 10 µM in data set [1] was determined as 52.3%; in data set [2] (setting [3]), 0%.
As for `CCOC(=O)C1=C(C)Nc2nc(C#N)c(C#N)n2C1c1cccc2ccccc12` (stereo not shown) [PT-194, ethyl 2,3-dicyano-7-methyl-5-(naphthalen-1-yl)-5,8-dihydroimidazo[1,2-a]pyrimidine-6-carboxylate], the “hERG Patch Clamp hERG % blk” value at hERG potassium channel (1 μM) is 25.0%; at hERG potassium channel (10 μM) it was 91.0%. Moreover, the inhibition at 10 µM is 76.1% in data set [1] (compound at 10 μM) and 19.1% in data set [2] (setting [3]).
The matching figures for `CC1=C(C(=O)OCc2ccccc2)C(c2cccc3ccccc23)n2nnnc2N1C` (stereo not shown) [PT-195, benzyl 4,5-dimethyl-7-(naphthalen-1-yl)-4,7-dihydrotetrazolo[1,5-a]pyrimidine-6-carboxylate]: 12.5%, 49.0%, 52.7% and 1.7%.
For `CC1=C(C(=O)OCc2ccccc2)[C@@H](c2ccccc2-c2ccc(C)o2)n2nnnc2N1` [PT-235, (R)-benzyl 5-methyl-7-(2-(5-methylfuran-2-yl)phenyl)-4,7-dihydrotetrazolo[1,5-a]pyrimidine-6-carboxylate], the “hERG Patch Clamp hERG % blk” value on hERG potassium channel (1 μM) was determined as 10.0%; at hERG potassium channel (10 μM), 41.5%. The inhibition at 10 µM is 71.4% in data set [1] (compound at 10 μM) and 28.1% in data set [2] (setting [3]).
The matching figures for `CC1=C(C(=O)OCc2ccccc2)C(c2c(-c3ccc(C(=O)O)cc3)sc3ccccc23)n2nnnc2N1` (stereo not shown) [PT-294, 4-(3-(6-(benzyloxycarbonyl)-5-methyl-4,7-dihydrotetrazolo[1,5-a]pyrimidin-7-yl)benzo[b]thiophen-2-yl)benzoic acid]: 12.5%, 15.5%, 67.2% and 24.4%.
Consider `COc1cc(Cl)ccc1COC(=O)C1=C(C)Nc2nnnn2C1c1c(Cl)cccc1Cl` (stereo not shown) [PT-306, 4-chloro-2-methoxybenzyl 7-(2,6-dichlorophenyl)-5-methyl-4,7-dihydrotetrazolo[1,5-a]pyrimidine-6-carboxylate], for which the “hERG Patch Clamp hERG % blk” value worked out at 10.0% on hERG potassium channel (1 μM) and 48.5% on hERG potassium channel (10 μM). The inhibition at 10 µM in data set [1] (compound at 10 μM) came out at 70.4%; in data set [2] (setting [3]), 20.1%; in data set [2] (setting [4]), 9%.
The matching figures for `COc1cc(Cl)ccc1COC(=O)C1=C(C)Nc2nnnn2C1c1c(C)cccc1C` (stereo not shown) [PT-307, 4-chloro-2-methoxybenzyl 7-(2,6-dimethylphenyl)-5-methyl-4,7-dihydrotetrazolo[1,5-a]pyrimidine-6-carboxylate]: 10.0%, 62.5%, 84.9%, 14% and 16.6%.
In the case of `C=CCOC(=O)C1=C(C)Nc2nnnn2C1c1cccc2ccccc12` (stereo not shown) [PT-319, allyl 5-methyl-7-(naphthalen-1-yl)-4,7-dihydrotetrazolo[1,5-a]pyrimidine-6-carboxylate], the “hERG Patch Clamp hERG % blk” value at hERG potassium channel (1 μM) stood at 10.0%; at hERG potassium channel (10 μM), 41.0%. Moreover, the inhibition at 10 µM in data set [1] (compound at 10 μM) turned out to be 55.7%; in data set [2] (setting [3]), 4.5%.
Consider `CC1=C(C(=O)OCc2ccccc2)C(c2ccc3ccccc3c2)c2c(C)n[nH]c2N1` (stereo not shown) [PT-325, benzyl 3,6-dimethyl-4-(naphthalen-2-yl)-4,7-dihydro-1H-pyrazolo[3,4-b]pyridine-5-carboxylate], for which the “hERG Patch Clamp hERG % blk” value at hERG potassium channel (1 μM) is listed as 10.0%; at hERG potassium channel (10 μM), 36.0%. Further, the inhibition at 10 µM turned out to be 53.8% in data set [1] (compound at 10 μM), 19.9% in data set [2] (setting [3]) and 24.3% in data set [2] (setting [4]).
